According to PubChem BioAssay (NCI):
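All cell lines were grown in 96-well plates and treated with compound for 48 hours. TGI marks complete inhibition of growth.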

Key:
Assay in all cases: NCI anticancer screen, dose series, 48 h
SR leukemia = tested on: SR leukemia
HCC-2998 colon = tested on: HCC-2998 colon
CCRF-CEM leukemia = tested on: CCRF-CEM leukemia
EKVX NSCLC = tested on: EKVX NSCLC
MCF7 breast = tested on: MCF7 breast
OVCAR-5 ovarian = tested on: OVCAR-5 ovarian
HT29 colon = tested on: HT29 colon
NCI-H226 lung = tested on: NCI-H226 lung
NCI-H522 lung = tested on: NCI-H522 lung
BT-549 breast = tested on: BT-549 breast
HOP-62 NSCLC = tested on: HOP-62 NSCLC
RXF 393 renal = tested on: RXF 393 renal
A549 NSCLC = tested on: A549 NSCLC
HCT-15 colon = tested on: HCT-15 colon
PC-3 prostate = tested on: PC-3 prostate
SN12C renal = tested on: SN12C renal
MDA-N = tested on: MDA-N
OVCAR-8 ovarian = tested on: OVCAR-8 ovarian
K-562 leukemia = tested on: K-562 leukemia
KM12 colon = tested on: KM12 colon
HOP-92 NSCLC = tested on: HOP-92 NSCLC
A498 renal = tested on: A498 renal
SK-OV-3 ovarian = tested on: SK-OV-3 ovarian
SF-295 CNS = tested on: SF-295 CNS
UACC-62 melanoma = tested on: UACC-62 melanoma
SNB-75 CNS = tested on: SNB-75 CNS
NCI/ADR-RES ovarian = tested on: NCI/ADR-RES ovarian
LOX IMVI melanoma = tested on: LOX IMVI melanoma
NCI-H23 lung = tested on: NCI-H23 lung
RPMI-8226 leukemia = tested on: RPMI-8226 leukemia
HL-60(TB) leukemia = tested on: HL-60(TB) leukemia
U251 CNS = tested on: U251 CNS
HCT-116 colon = tested on: HCT-116 colon
UO-31 renal = tested on: UO-31 renal
NCI-H460 lung = tested on: NCI-H460 lung
SK-MEL-28 melanoma = tested on: SK-MEL-28 melanoma
ACHN renal = tested on: ACHN renal
UACC-257 melanoma = tested on: UACC-257 melanoma
SNB-19 CNS = tested on: SNB-19 CNS
MDA-MB-435 = tested on: MDA-MB-435
SW-620 colon = tested on: SW-620 colon
OVCAR-3 ovarian = tested on: OVCAR-3 ovarian
CAKI-1 renal = tested on: CAKI-1 renal
SF-268 CNS = tested on: SF-268 CNS
SK-MEL-2 melanoma = tested on: SK-MEL-2 melanoma
786-0 renal = tested on: 786-0 renal
IGROV1 ovarian = tested on: IGROV1 ovarian
SF-539 CNS = tested on: SF-539 CNS
COLO 205 colon = tested on: COLO 205 colon
T-47D breast = tested on: T-47D breast
MALME-3M melanoma = tested on: MALME-3M melanoma
HS 578T breast = tested on: HS 578T breast
MDA-MB-231 breast = tested on: MDA-MB-231 breast
MOLT-4 leukemia = tested on: MOLT-4 leukemia
DU-145 prostate = tested on: DU-145 prostate
SK-MEL-5 melanoma = tested on: SK-MEL-5 melanoma
M14 melanoma = tested on: M14 melanoma

Measured: TGI

O=C(Nc1ccccc1C(=O)O)/C(=C/c1ccccc1)NC(=O)c1ccccc1
> 100 µM: all assays above
